Data set [1] is described as follows: Enzymatic stability in rat 2% liver homogenates. It counts as in vitro ADME. To be noted: 37 °C. The method, then:
(§1) Briefly, to examine the chemical stability of CFX-EHE, pH 6.5 and pH 7.4 phosphate buffer solutions (PBS) were used. Enzymatic stability of CFX-EHE (the initial concentration was 0.1 mM) was determined at 1, 5, and 15 min after the start of incubation at 37 °C using the following specimen: rat 10% plasma obtained from male Sprague Dawley (SD) rats, rat 2% small intestinal mucosal homogenates, and rat 2% liver homogenates in the same manner as described previously. […].

Data set [2] in a line: Enzymatic stability in rat 2% small intestinal mucosal homogenates. The data set is classed as in vitro ADME. The conditions noted are these: rat 2% mucosal homogenate, 37 °C. The protocol:
as §1

Data set [3] can be described thus: Solubility in pH 2 buffer and 0.1 M Tris-HCl buffer (pH 6.5). To be noted: thermodynamic from solid, 25 °C. The data set is classed as physicochemical. The protocol:
The mixture was centrifuged at 3000 rpm for 10 min, and the supernatant was filtered through a syringe filter with 0.22 μm of pore size (Millipore, Tokyo, Japan), and the concentrations of the compound in the filtrate were measured by HPLC.

Data set [4] is described as follows: Chemical stability in phosphate buffer solutions. It counts as physicochemical. The conditions noted are these: 37 °C. The protocol:
as §1

In a further data set the test system is S. aureus ATCC29213. The data set can be described thus: MIC, agar plate dilution method. The data set is classed as cell-based, Staphylococcus (S.) aureus. The protocol:
The bacterial numbers of S. aureus, E. coli, and P. aeruginosa were adjusted to McFarland 0.5 ([…]) with the sterilized isotonic NaCl solution. These bacterial solutions were inoculated in Mueller–Hinton broth containing CFX or CFX-EHE. Facultative anaerobic and aerobic bacteria were cultured under the aerobic condition at 37 °C for 20 h.

Data set [5] can be described thus: Chelation with Al3+ ion in vitro (precipitation with AlCl3). It counts as physicochemical. To be noted: drug 50 μM, pH 6.5, 30 min, 24 °C. The protocol:
AlCl3 was also dissolved in the same buffer at a concentration of 50 μM, 100 μM, 200 μM, 1 mM, or 2 mM, and each drug solution and AlCl3 solution were mixed at an equal volume. The mixture solution was shaken, stood for 30 min at 24 °C and centrifuged. The supernatant was filtrated through a syringe filter with 0.22 μm of pore size (Millipore, Tokyo, Japan).

Data set [6] is described as follows: Partition coefficient, chloroform/0.1 M Tris-HCl buffer (pH 6.5). It counts as physicochemical. The method, then: Briefly, chloroform and 0.1 M Tris-HCl buffer (pH 6.5) were mutually saturated before experiments. […] Four milliliters of each drug solution were added to 4 mL of chloroform, and the mixture was vigorously shaken for 30 min at 25 °C. After centrifugation at 3000 rpm for 10 min, the concentration of the compound in both phases was determined by HPLC.

The test system of a further data set is E. coli ATCC25922. As to the kind of experiment: MIC, agar plate dilution method. It counts as cell-based, Escherichia (E.) coli. The method, then: The bacterial numbers of S. aureus, E. coli, and P. aeruginosa were adjusted to McFarland 0.5 ([…]) with the sterilized isotonic NaCl solution. […] Facultative anaerobic and aerobic bacteria were cultured under the aerobic condition at 37 °C for 20 h.

The subject of the next data set is P. aeruginosa ATCC27853. The data set can be described thus: MIC, agar plate dilution method. The data set is classed as cell-based, Pseudomonas (P.) aeruginosa.
Data set [7] is described as follows: Enzymatic stability in rat 10% plasma. It counts as in vitro ADME. To be noted: 37 °C. The protocol: as §1
For data set [8] the following is noted: cited from earlier work; for Rate of adsorption onto solid Al(OH)3: quinolones 50 µM.
For data set [9] the following is noted: cited from earlier work.
For data set [10] the following is noted: 10% plasma, 1 min incubation; cited from earlier work.
The conditions of data set [11]: 2% liver homogenates, 1 min incubation; cited from earlier work.
For data set [12] the following is noted: cited from earlier work. This is another data set of the same source.
For data set [13] the following is noted: cited from earlier work. This is another data set of the same source.
The conditions of data set [14]: 2% mucosal homogenate, 1 min incubation; cited from earlier work.
The conditions of data set [15]: control rabbits.
The conditions of data set [16]: rats; cited from earlier work.
The conditions of data set [17]: sheep, dose of 2 mg/kg; cited from earlier work.
The conditions of data set [18]: cited from earlier work. The source holds these as a separate data set.
The conditions of data set [19]: mixed-breed dogs, dose of 5 mg/kg; cited from earlier work.

The text below walks through data of paper PMC10301896 (Pharmaceutics, 2023).

Values after ≈ are worked out from the molar mass of the structure shown. Read-outs that look alike come from different tables or passages of the source.

Turning to `CCOC(=O)OC(C)OC(=O)c1cn(C2CC2)c2cc(N3CCNCC3)c(F)cc2c1=O` (centres unmarked) [CFX-EHE], the “Hydrolysis (%)” value in data set [1] (1 min) is 38.4 ± 15.8%; in data set [1] (5 min), 69.5 ± 9.5%; in data set [1] (15 min) it was 94.8 ± 3.4%; in data set [2] (1 min), 20.4 ± 2.7%; in data set [2] (5 min), 59.0 ± 9.2%; in [2] (15 min), 85.9 ± 11.5%. Also, the “Hydrolysis (%)” value came out at 0% in data set [4] (0.1 M PBS (pH 6.5), 1 min); 0% in data set [4] (0.1 M PBS (pH 6.5), 5 min); 0% in data set [4] (0.1 M PBS (pH 6.5), 15 min); 0% in [4] (0.1 M PBS (pH 7.4), 1 min); 0% in data set [4] (0.1 M PBS (pH 7.4), 5 min); 0% in [4] (0.1 M PBS (pH 7.4), 15 min). In addition, the figures for the “Hydrolysis (%)” value in [7] (1 min), in data set [7] (5 min) and in [7] (15 min) were 9.5 ± 9.0%, 27.2 ± 1.0% and 71.1 ± 17.4%, respectively. Further, the solubility (as a rule, how much of the substance goes into solution per volume) at 30 min in data set [3] (aqueous buffer, 0.1 M Tris-HCl buffer (pH 6.5), read-out: Solubility pH 6.5) was found to be 3080 µg/mL (≈ 6880 µM); in [3] (pH 2 buffer adjusted with hydrochloric acid, pH 2, aqueous buffer, read-out: Solubility pH 2.0), 4280 µg/mL (≈ 9570 µM). In addition, the “MIC of CFX-EHE relative to CFX” value with S. aureus ATCC29213 (S. aureus), in the data set on E. coli ATCC25922 (E. coli) and in the data set with P. aeruginosa ATCC27853 (P. aeruginosa) was “more than 10 times” each time. For the same molecule, the MIC (as a rule, the smallest concentration in the dilution series that meets the test's criterion for growth inhibition) stood at 4 µg/mL (≈ 8.94 µM) against S. aureus ATCC29213 (Staphylococcus aureus, S. aureus ATCC29213, 37 °C, 20 h); 0.5 µg/mL (≈ 1.12 µM) against E. coli ATCC25922 (Escherichia coli, E. coli ATCC25922, 37 °C, 20 h); 8 µg/mL (≈ 17.9 µM) against P. aeruginosa ATCC27853 (Pseudomonas aeruginosa, P. aeruginosa ATCC27853, 37 °C, 20 h). Further, the “Precipitation (%)” value in [5] (AlCl3 25 μM), in [5] (AlCl3 50 μM), in data set [5] (AlCl3 100 μM) and in data set [5] (AlCl3 500 μM) was 0% in each case. Further, the “log PC” value in data set [6] (chloroform/0.1 M Tris-HCl buffer (pH 6.5), 25 °C) was determined as 0.79. Also, the “PC (partition coefficient)” value in data set [6] (chloroform/0.1 M Tris-HCl buffer (pH 6.5), 25 °C, mean of 3) worked out at 6.12. Moreover, the “Apparent PC of CFX-EHE relative to CFX” value in data set [6] (chloroform/pH 6.5 buffer) turned out to be 13 fold.

As to `CC1COc2c(N3CCN(C)CC3)c(F)cc3c(=O)c(C(=O)O)cn1c23` (centres unmarked) [OFX, ofloxacin], in data set [8], the “Elution rate of adsorbed quinolones with water” value (“Elution rate” below) is recorded as 20.9% and the “Rate of adsorption onto solid Al(OH)3” value is on record as 47.2%.

As for `CCOC(=O)OC(C)OC(=O)c1cn2c3c(c(N4CCN(C)CC4)c(F)cc3c1=O)OC[C@@H]2C` (some centres unmarked) [LFX-EHE, levofloxacin-ethoxycarbonyl 1-ethyl hemiacetal ester], in [9], the PC is recorded as 75.2. Moreover, the “PC (lipophilicity) of LFX-EHE relative to LFX” value in data set [9] was 13 fold. The figures for the Average hydrolysis % in [10], in data set [11] and in data set [14] were 8.2%, 17.7% and 17.4%, respectively. Moreover, the “Precipitation in the presence of AlCl3” value in data set [12] (1 mM of AlCl3 (drug: AlCl3 = 1:20)) is on record as “not precipitated”. The Solubility (in general, the concentration that dissolves in the medium under given conditions) at pH 2.0 in data set [13] is 16.54 mg/mL.

With `O=C(O)c1cn(C2CC2)c2cc(N3CCNCC3)c(F)cc2c1=O` [CFX, ciprofloxacin], in [15] ([…] iv infusion, LFX 20, CFX 30, TC 10 mg/kg), the β is 0.34 ± 0.04 h⁻¹. Moreover, the “Precipitation (%)” value was 20.4 ± 17.6% in [5] (AlCl3 25 μM); 22.9 ± 16.7% in data set [5] (AlCl3 50 μM); 39.2 ± 17.7% in data set [5] (AlCl3 100 μM); 55.5 ± 18.0% in [5] (AlCl3 500 μM); 73.4 ± 2.0% in [5] (AlCl3 1 mM).

On to `CCn1cc(C(=O)O)c(=O)c2cc(F)c(N3CCNCC3)nc21` [ENX, enoxacin], for which, in data set [8], the “Elution rate” value was 18.3% and the “Rate of adsorption onto solid Al(OH)3” value is given as 61.0%.

For the molecule `C[C@H]1COc2c(N3CCN(C)CC3)c(F)cc3c(=O)c(C(=O)O)cn1c23` [LFX, levofloxacin], in data set [16], the “Dose absorbed as the intact form from the intestinal tract into the portal system” value is reported as “approximately 90%”. For the same molecule, in data set [8], the “Elution rate” value is reported as 17.9%. The “Rate of adsorption onto solid Al(OH)3” value in data set [8] is 48.1%. The PC in [9] is 5.6. The Absolute oral bioavailability in data set [17] was 114 ± 27.7%; in data set [19] it was 71.93 ± 9.75%. In [15] (iv infusion), the “Total plasma clearance (CLtotal), Doseiv/AUC0–∞” value was determined as 13.7 mL/min/kg. Moreover, the “Oral bioavailabilities in humans” value in data set [18] (LFX 200–750 mg, CFX 200–1000 mg, TC 250 mg, ref references listed in the discussion section) is 70–100% (200–750 mg). Besides, in [18] (human, in vivo, iv), the “Fecal recovery, % of an intravenous dose” value is given as “approximately 15%”. For the same molecule, the Oral bioavailability in data set [18] (human, in vivo, po, 200 mg) is 69 ± 7%; in data set [18] (human, in vivo, po, 250 mg) it was 79 ± 47%; in data set [18] (human, in vivo, po, 500 mg), 82 ± 13%; in data set [18] (human, in vivo, po), “approximately 70%”; in data set [18] (humans, review article) it was “approximately 100%”. Besides, the Precipitation percentage in data set [12] (50 μM of AlCl3, same in vitro conditions) is 12.4%.
